molecular target: T1, Recombinant human ASK1 kinase (Homo sapiens, UniProt Q99683); assay: ASK1 kinase HTRF assay (KinEASE-STK); assay type: biochemical; conditions: HTRF detection; 3 nM ASK1 kinase, 1 uM STK-substrate-biotin
T1 construct: purchased Invitrogen Inc
T1 sequence (Q99683 1-1374): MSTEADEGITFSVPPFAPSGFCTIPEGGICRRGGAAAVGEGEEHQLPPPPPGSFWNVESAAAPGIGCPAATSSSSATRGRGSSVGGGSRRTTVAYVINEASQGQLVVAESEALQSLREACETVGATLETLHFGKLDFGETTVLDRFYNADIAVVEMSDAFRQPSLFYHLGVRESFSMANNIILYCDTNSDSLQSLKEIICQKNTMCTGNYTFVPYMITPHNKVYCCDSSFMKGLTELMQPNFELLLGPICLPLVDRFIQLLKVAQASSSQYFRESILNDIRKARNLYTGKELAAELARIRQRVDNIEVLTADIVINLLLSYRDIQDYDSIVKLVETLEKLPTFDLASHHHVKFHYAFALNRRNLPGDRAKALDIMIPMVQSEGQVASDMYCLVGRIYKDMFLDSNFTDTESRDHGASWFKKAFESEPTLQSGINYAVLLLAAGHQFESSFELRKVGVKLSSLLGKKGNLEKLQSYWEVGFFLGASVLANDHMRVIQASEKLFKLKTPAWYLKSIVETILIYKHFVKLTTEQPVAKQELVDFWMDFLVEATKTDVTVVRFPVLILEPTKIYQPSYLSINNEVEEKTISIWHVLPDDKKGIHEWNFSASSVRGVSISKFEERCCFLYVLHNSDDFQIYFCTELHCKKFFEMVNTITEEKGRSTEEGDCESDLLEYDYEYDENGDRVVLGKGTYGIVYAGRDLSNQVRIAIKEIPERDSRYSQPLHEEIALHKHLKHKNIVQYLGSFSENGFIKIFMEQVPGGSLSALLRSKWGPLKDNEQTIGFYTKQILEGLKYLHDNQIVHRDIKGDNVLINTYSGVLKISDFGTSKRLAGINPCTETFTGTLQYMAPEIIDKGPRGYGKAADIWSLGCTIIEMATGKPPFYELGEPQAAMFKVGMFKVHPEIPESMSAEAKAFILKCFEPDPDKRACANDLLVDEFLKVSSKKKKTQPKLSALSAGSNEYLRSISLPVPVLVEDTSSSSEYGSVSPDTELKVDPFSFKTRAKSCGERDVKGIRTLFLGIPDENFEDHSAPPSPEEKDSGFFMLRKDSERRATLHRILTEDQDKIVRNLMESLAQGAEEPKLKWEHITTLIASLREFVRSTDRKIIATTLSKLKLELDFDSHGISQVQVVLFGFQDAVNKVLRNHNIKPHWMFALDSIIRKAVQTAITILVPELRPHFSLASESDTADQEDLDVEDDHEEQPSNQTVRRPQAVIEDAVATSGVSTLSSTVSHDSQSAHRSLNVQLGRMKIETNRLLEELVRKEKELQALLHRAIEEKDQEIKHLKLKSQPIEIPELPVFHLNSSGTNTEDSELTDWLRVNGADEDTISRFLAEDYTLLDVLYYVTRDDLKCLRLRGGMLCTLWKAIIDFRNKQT
Description: Reagents: Recombinant human ASK1 kinase was from Invitrogen Inc. HTRF KinEASE™-STK S3 kit was obtained from Cisbio (Bedford, Mass.). All other reagents were of the highest grade commercially available.
Assay: The assay measures the phosphorylation level of a biotinylatd peptide substrate by the ASK1 kinase using HTRF detection. ASK1 kinase assay is based on HTRF KinEASE™-STK manual from Cisbio. Test compound, 1 uM STK-substrate-biotin, 3 nM of ASK1 kinase are incubated with 1*Kinase buffer with 5 mM MgCl2 and 1 mM DTT. 250 nM Sa-XL 665(4*) and STK-antibody-Cryptate work solution are added to stop the reaction and phosphorylated peptide substrate is detected using Envision 2104 Multilabeled reader from PerkinElmer. The fluorescence is measured at 615 nm (Cryptate) and 665 nm (XL665) and a ratio of 665 nm/615 nm is calculated for each well. The resulting TR-FRET level (a ratio of 665 nm/615 nm) is proportional to the phosphorylation level of substrate.

EC50 [µM]	Structure (SMILES)
≤ 0.05	CC(C)n1cnnc1-c1cccc(-c2ncc(-c3ccc(N(C)C)cc3)o2)n1 [Compound I-057]
≤ 0.05	CC(C)n1cnnc1-c1cccc(-c2ncc(-c3cccc(N(C)C)c3)o2)n1 [Compound I-058]
≤ 0.05	CNc1ccc(-c2cnc(-c3cccc(-c4nncn4C(C)C)n3)o2)cc1 [Compound I-060]
≤ 0.05	CNc1cccc(-c2cnc(-c3cccc(-c4nncn4C(C)C)n3)o2)c1 [Compound I-061]
≤ 0.05	CC(C)n1cnnc1-c1cccc(-c2ncc(-c3cccc(N)c3)o2)n1 [Compound I-063]
≤ 0.05	CC(C)n1cnnc1-c1cccc(-c2ncc(-c3ccc(N)cc3)o2)n1 [Compound I-065]
≤ 0.05	C[C@H](CO)n1cnnc1-c1cccc(-c2ncc(-c3ccc(N)cc3)o2)n1 [Compound I-066]
≤ 0.05	CSc1ccc(-c2cnc(-c3cccc(-c4nncn4C(C)C)n3)o2)cc1 [Compound I-067]
≤ 0.05	CSc1cccc(-c2cnc(-c3cccc(-c4nncn4C(C)C)n3)o2)c1 [Compound I-068]
0.05 to 0.5	COc1cccc(-c2cnc(-c3cccc(-c4nncn4C(C)C)n3)o2)c1 [Compound I-070]
0.05 to 0.5	COc1ccc(-c2cnc(-c3cccc(-c4nncn4C(C)C)n3)o2)cc1 [Compound I-071]
≤ 0.05	CC(C)n1cnnc1-c1cccc(-c2ncc(-c3ccccc3O)o2)n1 [Compound I-072]
≤ 0.05	CC(C)n1cnnc1-c1cccc(-c2ncc(-c3cccc(O)c3)o2)n1 [Compound I-073]
≤ 0.05	CC(C)Oc1cccc(-c2cnc(-c3cccc(-c4nncn4C(C)C)n3)o2)c1 [Compound I-076]
0.05 to 0.5	CC(C)n1cnnc1-c1cccc(-c2ncc(-c3ccc(OC(F)(F)F)cc3)o2)n1 [Compound I-081]
0.05 to 0.5	CC(C)n1cnnc1-c1cccc(-c2ncc(-c3cccc(OC(F)(F)F)c3)o2)n1 [Compound I-082]

EC50 [µM]	Structure (SMILES)
0.05 to 0.5	CC(C)n1cnnc1-c1cccc(-c2ncc(-c3cccc(OC(F)F)c3)o2)n1 [Compound I-083]
≤ 0.05	CC(C)n1cnnc1-c1cccc(-c2ncc(-c3ccc(OC(F)F)cc3)o2)n1 [Compound I-084]
0.05 to 0.5	CC(C)n1cnnc1-c1cccc(-c2ncc(-c3cccc(C(F)(F)F)c3)o2)n1 [Compound I-086]
0.05 to 0.5	CC(C)n1cnnc1-c1cccc(-c2ncc(-c3cccc(C(F)F)c3)o2)n1 [Compound I-087]
0.05 to 0.5	CC(C)n1cnnc1-c1cccc(-c2ncc(-c3ccccc3C#N)o2)n1 [Compound I-089]
0.05 to 0.5	CC(C)n1cnnc1-c1cccc(-c2ncc(-c3cccc(C#N)c3)o2)n1 [Compound I-090]
0.05 to 0.5	CC(C)n1cnnc1-c1cccc(-c2ncc(-c3ccc(C#N)cc3)o2)n1 [Compound I-091]
≤ 0.05	COC(=O)c1cccc(-c2cnc(-c3cccc(-c4nncn4C(C)C)n3)o2)c1 [Compound I-092]
0.05 to 0.5	COC(=O)c1ccc(-c2cnc(-c3cccc(-c4nncn4C(C)C)n3)o2)cc1 [Compound I-093]
≤ 0.05	CC(C)n1cnnc1-c1cccc(-c2ncc(-c3ccc(C(=O)O)cc3)o2)n1 [Compound I-094]
0.05 to 0.5	CC(C)n1cnnc1-c1cccc(-c2ncc(-c3ccc(C(N)=O)cc3)o2)n1 [Compound I-095]
≤ 0.05	C[C@H](CO)n1cnnc1-c1cccc(-c2ncc(-c3ccc(S(C)(=O)=O)cc3)o2)n1 [Compound I-098]
≤ 0.05	C[C@H](CO)n1cnnc1-c1cccc(-c2ncc(-c3ccc(S(N)(=O)=O)cc3)o2)n1 [Compound I-100]
0.05 to 0.5	CC(C)n1cnnc1-c1cccc(-c2ncc(-c3ccc4ccccc4c3)o2)n1 [Compound I-101]
0.05 to 0.5	CC(C)n1cnnc1-c1cccc(-c2ncc(-c3ccc(-c4ccccc4)cc3)o2)n1 [Compound I-105]

Further lines, the compound ahead of its results:

Structure (SMILES)	EC50 [µM]
C[C@H](CO)n1cnnc1-c1cccc(-c2ncc(-c3c(F)cc(F)cc3F)o2)n1 [Compound I-053]	≤ 0.05
C[C@H](CO)n1cnnc1-c1cccc(-c2ncc(-c3cccc(N(C)C)c3)o2)n1 [Compound I-059]	≤ 0.05
CNc1cccc(-c2cnc(-c3cccc(-c4nncn4[C@H](C)CO)n3)o2)c1 [Compound I-062]	≤ 0.05
C[C@H](CO)n1cnnc1-c1cccc(-c2ncc(-c3cccc(N)c3)o2)n1 [Compound I-064]	≤ 0.05
C[C@H](CO)n1cnnc1-c1cccc(-c2ncc(-c3cccc(O)c3)o2)n1 [Compound I-074]	≤ 0.05
CCCCCCOc1cccc(-c2cnc(-c3cccc(-c4nncn4[C@H](C)CO)n3)o2)c1 [Compound I-077]	≤ 0.05
COCCOc1cccc(-c2cnc(-c3cccc(-c4nncn4C(C)C)n3)o2)c1 [Compound I-078]	≤ 0.05
CC(C)n1cnnc1-c1cccc(-c2ncc(-c3cccc(OC[C@@H]4CNCCO4)c3)o2)n1 [Compound I-079]	≤ 0.05
CC(C)n1cnnc1-c1cccc(-c2ncc(-c3cccc(OC[C@@H]4CN(C)CCO4)c3)o2)n1 [Compound I-080]	≤ 0.05
CC(C)n1cnnc1-c1cccc(-c2ncc(-c3ccccc3C(F)(F)F)o2)n1 [Compound I-085]	0.05 to 0.5
CSc1ccccc1-c1cnc(-c2cccc(-c3nncn3[C@H](C)CO)n2)o1 [Compound I-096]	≤ 0.05
C[C@H](CO)n1cnnc1-c1cccc(-c2ncc(-c3cccc(S(C)(=O)=O)c3)o2)n1 [Compound I-097]	≤ 0.05
C[C@H](CO)n1cnnc1-c1cccc(-c2ncc(-c3cccc(S(N)(=O)=O)c3)o2)n1 [Compound I-099]	≤ 0.05
CC(C)n1cnnc1-c1cccc(-c2ncc(-c3ccc4c(c3)OCCO4)o2)n1 [Compound I-102]	≤ 0.05
CC(C)n1cnnc1-c1cccc(-c2ncc(-c3ccc4c(c3)CCCC4)o2)n1 [Compound I-103]	0.05 to 0.5
CC(C)n1cnnc1-c1cccc(-c2ncc(-c3cccc(-c4ccccc4)c3)o2)n1 [Compound I-104]	0.05 to 0.5
CC(C)n1cnnc1-c1cccc(-c2ncc(-c3cccc(-c4ccccn4)c3)o2)n1 [Compound I-106]	0.05 to 0.5
CC(C)n1cnnc1-c1cccc(-c2ncc(-c3cccc(-c4cccnc4)c3)o2)n1 [Compound I-107]	≤ 0.05
CC(C)n1cnnc1-c1cccc(-c2ncc(-c3cccc(-c4ccncc4)c3)o2)n1 [Compound I-108]	≤ 0.05
CC(C)n1cnnc1-c1cccc(-c2ncc(-c3cccc(C4CCOCC4)c3)o2)n1 [Compound I-109]	≤ 0.05
CC(C)n1cnnc1-c1cccc(-c2ncc(-c3cccc(N4CCOCC4)c3)o2)n1 [Compound I-110]	≤ 0.05
C[C@H](CO)n1cnnc1-c1cccc(-c2ncc(-c3cccc(N4CCOCC4)c3)o2)n1 [Compound I-111]	≤ 0.05
CC(C)n1cnnc1-c1cccc(-c2ncc(-c3ccc(N4CCOCC4)cc3F)o2)n1 [Compound I-112]	0.5 to 5
CC(C)n1cnnc1-c1cccc(-c2ncc(-c3cccc(N4CCNCC4)c3)o2)n1 [Compound I-113]	≤ 0.05
C[C@H](CO)n1cnnc1-c1cccc(-c2ncc(-c3cccc(N4CCNCC4)c3)o2)n1 [Compound I-114]	≤ 0.05
CC(C)n1cnnc1-c1cccc(-c2ncc(-c3cccc(N4CCN(C)CC4)c3)o2)n1 [Compound I-115]	≤ 0.05
C[C@H](CO)n1cnnc1-c1cccc(-c2ncc(-c3cccc(N4CCN(C)CC4)c3)o2)n1 [Compound I-116]	≤ 0.05

Source: patent US20210179600A1, “OXAZOLE AND THIAZOLE DERIVATIVES AS INHIBITORS OF ASK1” (Hepagene Therapeutics (HK) Limited, priority 2017, published 2021)
